# In patent US20220031684A1, “PROPHYLACTIC EFFICACY OF SEROTONIN 4 RECEPTOR AGONISTS AGAINST STRESS” (THE TRUSTEES OF COLUMBIA UNIVERSITY IN THE CITY OF NEW YORK, priority 2019, published 2022):
# Counter-ions that a name gives are not always drawn.
# Assays:
# BALB/cJRj mice [1] = experiment: Elevated plus maze (EPM), acute anxiolytic-like effect; format: in vivo
# Method: RS67333 (1.5 mg/kg, i.p.), diazepam (1.5 mg/kg, i.p.), fluoxetine (18 mg/kg, i.p.) were injected 45 min before testing in the Elevated Plus Maze (EPM), the Novelty Suppressed Feeding (NSF) or the Open Field (OF) in three independent cohorts of male BALB/cJRj mice.
# To ensure the selectivity of the anxiolytic-like effects of RS67333, in a new cohort of male BALB/cJRj mice, GR125487 (1.0 mg/kg, i.p.) dissolved in 0.9% NaCl solution, was injected 15 minutes before RS67333 administration (1.5 mg/kg, i.p.). EPM or NSF occurred 45 min after RS67333 administration (A-S1). Behavioral consequences of the co-administration of GR125487+RS67333 were compared to RS67333 alone, diazepam (1.5 mg/kg, i.p.) fluoxetine (18 mg/kg, i.p.) and vehicle groups (0.9% saline solution, i.p.).
# For mPFC drug infusion, two bilateral cannulae (75 μm-diameter silica capillary tubing inserted in 27G stainless steel catheter) were implanted in the mPFC [stereotaxic coordinates in mm from bregma: A=+2.10, L=±0.50, V=−2.60, A, anterior; L, lateral; and V, ventral, according to (A-S10)] under anesthesia (chloral hydrate, 400 mg/kg, i.p.). […] Diazepam (1.5 mg/kg) was used as a positive control.
# In a new cohort of male BALB/cJRj mice, p-CPA was administered twice daily (at 0900 and 1700 h) for 3 consecutive days. RS67333 ([…]) and diazepam ([…]) were then intra-mPFC administered 24 h after the final p-CPA administration and behavioral test (EPM) occurred 45 minutes after local infusion.
# (§1) The EPM is a widely used behavioral assay for rodents and it has been validated to assess the anti-anxiety effects of pharmacological agents (A-S11). This test was performed as described by (A-S1). The maze is a plus-cross-shaped apparatus, with two open arms and two arms closed by walls linked by a central platform 50 cm above the floor. Mice were individually put in the center of the maze facing an open arm and were allowed to explore the maze during 5 min for the behavioral consequences of an acute systemic administration or mPFC infusion and during 6 min for the optogenetic experiments. The time spent in and the numbers of entries into the open arms were used as an anxiety index. All parameters were measured using a videotracker (EPM3C, Bioseb, Vitrolles, France).
# sigma 1 = sigma 1 (Homo sapiens, UniProt Q99720); settings: cited from earlier work
# [2] = target: other neurotransmitter receptors; settings: except sigma receptors; cited from earlier work
# BALB/cJRj mice [3] = experiment: OF with optogenetic inhibition of mPFC terminals in the DRN (CaMKII-ArchT); format: in vivo; settings: intra-mPFC RS67333 0.5 pg/side or diazepam 1.5 pg/side; for inhibition of the drug-induced increase in center time (OF) during 3-min green light illumination: light ON
# Description: Motor activity was quantified in four 39×39 cm perpex plastic open field boxes (Vivo-tech/Ugo Basile, Salon de Provence, France). The apparatus was illuminated from the ground with special designed 40×40 cm Infra-red backlights (monochromatic wavelength 850 nm high homogeneity, Vivo-tech, Salon de Provence, France). Activity chambers were monitored by four black and white cameras with varifocal optics and polarizing filters (Vivo-tech, Salon de Provence, France). For optogenetic experiments, optical bandpass filters were specifically selected to improve tracking detection. The whole set-up was controlled using ANYMAZE version 6 video tracking software (Stoelting Co/Vivo-tech, Salon de Provence, France). Dependent measures were time in the center over a 10 min for systemic administration or 6 min test period for optogenetic experiments, total ambulatory distance and ambulatory distance traveled in the center divided by total distance.
# (§2) To target opsin expression selectively to cortical glutamatergic terminals in the DRN, AAV5-CaMKIIα-ChR2-enhanced yellow fluorescent protein (eYFP), AAV5-CaMKII-ArchT-green fluorescent protein (GFP) or AAV5-CaMKII-eYFP, obtained from Karl Deisseroth and Ed Boyden (UNC Vector Core, NC, USA) were bilaterally injected into the mPFC (in mm from bregma, A=+2.10, L=±0.50, V=−2.60). Mice injected with AAV5-CamKII-eYFP were used as control.
# (§3) BALB/cJRj mice were surgically implanted with fiber optics targeted to the DRN (in mm from bregma, A=−4.50, L=+1.20, V=−4.0, angle 15°). A […] core, 0.37 NA fiber optic (ThorLabs, ˜10-12 and 15-16 mW for ChR2 and Arch-T, respectively, at the tip of optic) was used for optical stimulation via a patch cable connected to either a 473 or 532 nm laser diode (OEM laser systems, USA) as previously described (A-S15). For behavioral experiments, AAV5-CaMKIIα-ChR2-eYFP mice and their controls received a 10 Hz stimulation, 20 ms pulses, over a 3-minute period whereas a green light was delivered continuously to AAV5-CaMKII-ArchT-GFP throughout the 3 min testing period. Similar doses of RS67333 (locally in the mPFC at […] or at 1.5 mg/kg, i.p.) and diazepam (locally in the mPFC at […] or at 1.5 mg/kg, i.p.) were infused in the mPFC or administered i.p. The stimulation or the inhibition of mPFC projections in the DRN occurred simultaneously to the behavioral paradigms.
# BALB/cJRj mice [4] = experiment: EPM with optogenetic inhibition of mPFC terminals in the DRN (CaMKII-ArchT); format: in vivo; settings: for time, percent time spent in the open arms (EPM), light OFF / inhibition of the drug-induced increase in open-arm time (EPM) during 3-min green light illumination: intra-mPFC RS67333 0.5 pg/side or diazepam 1.5 pg/side; for inhibition of the drug-induced increase in open-arm time (EPM) during 3-min green light illumination: light ON
# Method: as §1, §2, §3
# [5] = CaMKII-ArchT-mPFC injected mice, systemic RS67333 1.5 mg/kg or diazepam 1.5 mg/kg
# [6] = CamKII-ArchT mice, intra-mPFC infusion
# sigma 1, sequence (Q99720 whole entry): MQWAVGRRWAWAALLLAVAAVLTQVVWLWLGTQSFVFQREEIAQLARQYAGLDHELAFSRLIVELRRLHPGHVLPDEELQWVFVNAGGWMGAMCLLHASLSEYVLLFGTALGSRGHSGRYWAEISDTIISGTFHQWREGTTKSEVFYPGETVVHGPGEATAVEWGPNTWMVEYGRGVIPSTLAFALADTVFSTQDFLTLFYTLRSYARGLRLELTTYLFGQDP
SMILES,"time and percent time spent in the open arms (EPM) vs vehicle (BALB/cJRj mice [1]; intra-mPFC infusion 45 min before testing, RS67333 0.5 pg/side (1 pg), diazepam 1.5 pg/side, HCl)","time and percent time spent in the open arms (EPM) vs vehicle (BALB/cJRj mice [1]; male BALB/cJRj, i.p. 45 min before testing, RS67333 1.5 mg/kg, diazepam 1.5 mg/kg)",pKi sigma 1 (sigma 1),pKi for other neurotransmitter receptors [2],"time spent in the center (OF), light OFF (BALB/cJRj mice [3])",inhibition of the drug-induced increase in center time (OF) during 3-min green light illumination (BALB/cJRj mice [3]),"decrease in time spent in the open arms (EPM), light ON vs light OFF (BALB/cJRj mice [4]; [5])","time, percent time spent in the open arms (EPM), light OFF (BALB/cJRj mice [4]; CamKII-ArchT mice)",inhibition of the drug-induced increase in open-arm time (EPM) during 3-min green light illumination (BALB/cJRj mice [4]; CamKII-ArchT mice),"ratio of ambulatory distance in the open arms divided by total distance (EPM) vs vehicle (BALB/cJRj mice [1]; i.p. 45 min before testing, RS67333 1.5 mg/kg, diazepam 1.5 mg/kg)","time and percent time spent in the open arms (EPM) vs vehicle (BALB/cJRj mice [1]; intra-mPFC infusion 45 min before testing, RS67333 0.5 pg/side (1 pg), diazepam 1.5 pg/side)","time and percent time spent in the open arms (EPM) vs vehicle (BALB/cJRj mice [1]; male BALB/cJRj, i.p. 45 min before testing, RS67333 1.5 mg/kg, diazepam 1.5 mg/kg, hydrochloride)","drug-induced increase in time, percent time in open arms and ratio open arms/total distance (EPM) in 5-HT-depleted p-CPA mice (BALB/cJRj mice [1]; p-CPA pre-treatment 3 days, intra-mPFC RS67333 0.5 pg/side or diazepam 1.5 pg/side)","time, percent time in open arms and ratio open arms/total distance (EPM), light OFF vs vehicle (BALB/cJRj mice [4]; [5])","drug-induced increase of ratio open arms/total distance (EPM), light ON (BALB/cJRj mice [4]; [6])","ratio of ambulatory distance in open arms divided by total distance (EPM), light OFF vs controls (BALB/cJRj mice [4]; [6])"
"CCCCN1CCC(CCC(=O)c2cc(Cl)c(N)cc2OC)CC1.Cl [RS-67,333, 1-(4-amino-5-chloro-2-methoxyphenyl)-3-[1(n-butyl)-4-piperidinyl]-1-propanone HCl]",significantly increased time and percent time spent in the open arms,increased,8.9,less than 6.7,increased significantly the time spent in the center,85±20%,24%,increased significantly time,70±8%,–,–,–,–,–,–,–
"CN1C(=O)CN=C(c2ccccc2)c2cc(Cl)ccc21 [diazepam, Diazepam hydrochloride]",–,–,–,–,increased significantly the time spent in the center,80±22%,17%,increased significantly time,85±5%,significantly increased,"increased time, percent time spent in the open arms",significantly increased time and percent time spent in the open arms,abolished,"increased time, percent time spent in open arms",blocked,increased the ratio
